What is called IC50 is the concentration that inhibits the measured activity by half. Read a high IC50 as a need for much substance.

The results in this text go back to BindingDB's records for doi:10.1021/jm000023o (Cocensys, 2000).

Experiment [1] is described as follows: Concentration required for 50% Inhibition of responses at cloned NR1A/2AB N-methyl-D-aspartate (NMDA) expressed in Xenopus oocytes.
Assay in experiment [2]: as above
The source holds these as a separate data set.

Structures are written as SMILES.

In experiment [1], `Oc1ccc(C#CCN2CCC(Cc3ccccc3)CC2)cc1` [4-[3-(4-Benzyl-piperidin-1-yl)-prop-1-ynyl]-phenol] yielded an IC50 of 0.1 µM.

As for `C(#Cc1ccc2cc[nH]c2c1)CCN1CCC(Cc2ccccc2)CC1` [6-[4-(4-Benzyl-piperidin-1-yl)-but-1-ynyl]-1H-indole], in experiment [2], the IC50 came to 6.1 µM.
